Target: human Siglec-9 (hSiglec-9-Fc, hSiglec-9) (Homo sapiens, UniProt Q9Y336)
Experiment: glycan microarray, fluorescence
Assay type: binding
Conditions: glycan immobilised on epoxide slide; PBS pH 7.4, RT, 2 h

human Siglec-9 (hSiglec-9-Fc, hSiglec-9), sequence (Q9Y336 18-348 limits assumed): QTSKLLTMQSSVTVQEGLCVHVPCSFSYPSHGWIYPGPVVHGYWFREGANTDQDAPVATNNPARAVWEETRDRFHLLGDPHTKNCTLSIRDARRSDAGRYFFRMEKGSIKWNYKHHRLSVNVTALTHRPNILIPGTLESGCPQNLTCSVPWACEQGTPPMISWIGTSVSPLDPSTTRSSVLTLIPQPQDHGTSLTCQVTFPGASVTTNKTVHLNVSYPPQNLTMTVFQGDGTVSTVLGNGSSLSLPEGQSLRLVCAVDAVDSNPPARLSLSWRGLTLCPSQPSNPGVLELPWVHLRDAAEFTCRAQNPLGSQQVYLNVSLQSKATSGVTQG

| Structure (SMILES) | glycan microarray, fluorescence (RFU) |
| --- | --- |
| CC(=O)N[C@H]1[C@H]([C@H](O)[C@H](O)COC(C)=O)O[C@@](O[C@H]2[C@@H](O)[C@@H](CO)O[C@@H](O[C@H]3[C@H](O)[C@@H](O)[C@H](OCCCN)O[C@@H]3CO)[C@@H]2O)(C(=O)O)C[C@@H]1O [Neu5,9Ac2α3Galβ4GlcβProNH2] | observable binding to both Neu5Ac9NAc (black column) and Neu5,9Ac2 (grey column)-containing glycans |
| CC(=O)N[C@H]1[C@H]([C@H](O)[C@H](O)CO)O[C@@](O[C@H]2[C@@H](O)[C@@H](CO)O[C@@H](O[C@H]3[C@H](O)[C@@H](O)[C@H](OCCCN)O[C@@H]3CO)[C@@H]2O)(C(=O)O)C[C@@H]1O [Neu5Acα3Galβ4GlcβProNH2] | hSiglec-9 prefers binding to Neu5Ac-glycan without 9-modification at sialic acid |
